{"source": "ChEMBL document CHEMBL5365543", "about": "“Benzamidine Conjugation Converts Expelled Potential Active Agents into Antifungals against Drug-Resistant Fungi” (J Med Chem, 2023)", "key": {"[1]": {"tested_on": "Candida albicans", "experiment": "Antifungal activity against wild-type Candida albicans SC5314 assessed as decrease in viable count measured after 24 hrs by colony-counting based time-killing kinetics assay", "assay_type": "functional, organism-based", "conditions": "dose 2-4 µg/ml"}, "[2]": {"tested_on": "Candida albicans", "experiment": "Antifungal activity against clinical isolate fluconazole-resistant Candida albicans Gu5 infected in BALB/c mouse assessed as fold reduction in kidney fungal burden at 6 mg/kg, ip administered on day 1 and day 3 post fungal infection measured after 7 days", "assay_type": "functional", "conditions": "time 7 day"}, "[3]": {"tested_on": "Candida albicans", "experiment": "Antifungal activity against clinical isolate fluconazole-resistant Candida albicans Gu5 infected in BALB/c mouse assessed as reduction in kidney fungal infection at 6 mg/kg, ip administered on day 1 and day 3 post fungal infection measured after 7 days by periodic acid-schiff/hematoxylin and eosin staining based microscopic analysis", "assay_type": "functional, organism-based", "conditions": "time 7.0 day"}, "[4]": {"experiment": "Selectivity ratio of IC50 for cytotoxicity against human HBE cells to MIC80 for antifungal activity against clinical isolate fluconazole-resistant Candida albicans Gu5 harbouring TAC1 mutation overexpressing efflux pump CdrL and Cdr2", "assay_type": "toxicity, cell-based"}, "[5]": {"tested_on": "Candida albicans", "experiment": "Antifungal activity against fluconazole-resistant clinical isolate Candida albicans Gu5 assessed as decrease in viable count measured after 24 hrs by colony-counting based time-killing kinetics assay", "assay_type": "functional, organism-based", "conditions": "dose 2-4 µg/ml"}, "[6]": {"experiment": "Selectivity ratio of IC50 for cytotoxicity against human HBE cells to MIC80 for antifungal activity against wild-type Candida albicans SC5314", "assay_type": "toxicity, cell-based"}, "[7]": {"experiment": "Cytotoxicity against human HBE cells assessed as inhibition of cell growth measured after 4 hrs by MTT assay", "assay_type": "toxicity, cell-based"}, "[8]": {"tested_on": "Candida albicans", "experiment": "Antifungal activity against clinical isolate fluconazole-resistant Candida albicans Gu5 infected in BALB/c mouse assessed as reduction in renal neutrophil infiltration at 6 mg/kg, ip administered on day 1 and day 3 post fungal infection measured after 7 days by periodic acid-schiff/hematoxylin and eosin staining based microscopic analysis", "assay_type": "functional, organism-based", "conditions": "time 7.0 day"}, "[9]": {"tested_on": "Candida albicans", "experiment": "Inhibition of biofilm formation in wild-type Candida albicans SC5314 at 8 microg/ml measured after 24 hrs by alamar blue staining based colorimetric analysis", "assay_type": "functional"}, "[10]": {"tested_on": "Candida albicans", "experiment": "Antifungal activity against clinical isolate Candida albicans YEM15 overexpressing efflux pump CdrL and Cdr2 assessed as inhibition of fungal growth measured after 24 hrs by CLSI based microtiter plate analysis", "assay_type": "functional"}, "[11]": {"tested_on": "Candida albicans", "experiment": "Antifungal activity against clinical isolate fluconazole-resistant Candida albicans CA632 assessed as inhibition of fungal growth measured after 24 hrs by CLSI based microtiter plate analysis", "assay_type": "functional"}, "[12]": {"tested_on": "Candida albicans", "experiment": "Antifungal activity against fluconazole-resistant clinical isolate Candida albicans Gu5 assessed as decrease in viable count at 2 to 4 microg/ml by colony-counting based time-killing kinetics assay", "assay_type": "functional, organism-based", "conditions": "dose 2-4 µg/ml, time 24.0 hrs, TDE = time-dependent effect"}, "[13]": {"tested_on": "[Candida] auris", "experiment": "Antifungal activity against clinical isolate fluconazole-resistant Candida auris CBS12774 assessed as decrease in viable count measured after 24 hrs by colony-counting based time-killing kinetics assay", "assay_type": "functional, organism-based", "conditions": "Candidozyma auris, dose 2-4 µg/ml"}, "[14]": {"tested_on": "Candida albicans", "experiment": "Antifungal activity against clinical isolate Candida albicans SCUPC2R14MPG2A harbouring UPC2 mutation overexpressing […] Erg11 assessed as inhibition of fungal growth measured after 24 hrs by CLSI based microtiter plate analysis", "assay_type": "functional"}, "[15]": {"experiment": "Toxicity in BALB/c mouse infected with clinical isolate fluconazole-resistant Candida albicans Gu5 assessed as animal survival rate at 6 mg/kg, ip administered on day 1 and day 3 post fungal infection measured after 7 days", "assay_type": "organism-based", "conditions": "in vivo, 168 h, time 7 day"}, "[16]": {"tested_on": "[Candida] auris", "experiment": "Antifungal activity against clinical isolate fluconazole-resistant Candida auris CBS12774 assessed as inhibition of fungal growth measured after 24 hrs by CLSI based microtiter plate analysis", "assay_type": "functional", "conditions": "Candidozyma auris"}, "[17]": {"experiment": "Selectivity ratio of IC50 for cytotoxicity against human HBE cells to MIC80 for antifungal activity against clinical isolate fluconazole-resistant Candida auris CBS12774", "assay_type": "toxicity, cell-based"}, "[18]": {"tested_on": "Candida albicans", "experiment": "Induction of drug resistance in wild-type Candida albicans SC5314 assessed as change in MIC at 0.5 times of MIC measured after 30 passages by broth microdilution method", "assay_type": "functional"}, "[19]": {"tested_on": "Candida albicans", "experiment": "Antifungal activity against clinical isolate fluconazole-resistant Candida albicans G5 harbouring MRR1 mutation overexpressing MdrL assessed as inhibition of fungal growth measured after 24 hrs by CLSI based microtiter plate analysis", "assay_type": "functional"}, "[20]": {"tested_on": "Candida tropicalis", "experiment": "Antifungal activity against clinical isolate fluconazole-resistant Candida tropicalis CT10 assessed as inhibition of fungal growth measured after 24 hrs by CLSI based microtiter plate analysis", "assay_type": "functional"}, "[21]": {"experiment": "Selectivity ratio of IC50 for cytotoxicity against human HBE cells to MIC80 for antifungal activity against clinical isolate fluconazole-resistant Candida glabrata CG2", "assay_type": "toxicity, cell-based"}, "[22]": {"tested_on": "Candida albicans", "experiment": "Antifungal activity against clinical isolate Candida albicans YEM13 overexpressing efflux pump MdrL assessed as inhibition of fungal growth measured after 24 hrs by CLSI based microtiter plate analysis", "assay_type": "functional"}, "[23]": {"tested_on": "Candida albicans", "experiment": "Antifungal activity against wild-type Candida albicans SC5314 assessed as decrease in viable count at 2 to 4 microg/ml by colony-counting based time-killing kinetics assay", "assay_type": "functional, organism-based", "conditions": "dose 2-4 µg/ml, time 24.0 hrs, TDE = time-dependent effect"}, "[24]": {"experiment": "Selectivity ratio of IC50 for cytotoxicity against human HBE cells to MIC80 for antifungal activity against clinical isolate fluconazole-resistant Cryptococcus neoformans H99", "assay_type": "toxicity, cell-based"}, "[25]": {"tested_on": "[Candida] auris", "experiment": "Inhibition of biofilm formation in clinical isolate fluconazole-resistant Candida auris CBS12774 measured after 24 hrs by alamar blue staining based colorimetric analysis", "assay_type": "functional, organism-based", "conditions": "Candidozyma auris, dose 4-32 µg/ml"}, "[26]": {"tested_on": "Cryptococcus neoformans", "experiment": "Antifungal activity against clinical isolate fluconazole-resistant Cryptococcus neoformans H99 assessed as inhibition of fungal growth measured after 24 hrs by CLSI based microtiter plate analysis", "assay_type": "functional"}, "[27]": {"tested_on": "[Candida] auris", "experiment": "Inhibition of biofilm formation in clinical isolate fluconazole-resistant Candida auris CBS12774 at 2 microg/ml measured after 24 hrs by alamar blue staining based colorimetric analysis", "assay_type": "functional, organism-based", "conditions": "Candidozyma auris, dose 2.0 µg/ml"}, "[28]": {"tested_on": "Nakaseomyces glabratus", "experiment": "Antifungal activity against clinical isolate fluconazole-resistant Candida glabrata CG2 assessed as inhibition of fungal growth measured after 24 hrs by CLSI based microtiter plate analysis", "assay_type": "functional"}, "[29]": {"tested_on": "Candida albicans", "experiment": "Antifungal activity against wild-type Candida albicans SC5314 assessed as inhibition of fungal growth measured after 24 hrs by CLSI based microtiter plate analysis", "assay_type": "functional"}, "[30]": {"experiment": "Selectivity ratio of IC50 for cytotoxicity against human HBE cells to MIC80 for antifungal activity against clinical isolate Candida albicans YEM15 overexpressing efflux pump CdrL and Cdr2", "assay_type": "toxicity, cell-based"}, "[31]": {"tested_on": "Candida albicans", "experiment": "Antifungal activity against clinical isolate Candida albicans SCMRRIR34MPG2A harbouring MRR1 mutation overexpressing efflux pump MdrL assessed as inhibition of fungal growth measured after 24 hrs by CLSI based microtiter plate analysis", "assay_type": "functional"}, "[32]": {"experiment": "Drug accumulation in wild-type Candida albicans SC5314 at 50 microg/ml incubated for 3 hrs by HPLC analysis", "assay_type": "ADME", "conditions": "dose 50 µg/ml"}, "[33]": {"experiment": "Selectivity ratio of IC50 for cytotoxicity against human HBE cells to MIC80 for antifungal activity against clinical isolate fluconazole-resistant Candida albicans G5 harbouring MRR1 mutation overexpressing MdrL", "assay_type": "toxicity, cell-based"}, "[34]": {"tested_on": "Candida albicans", "experiment": "Inhibition of biofilm formation in wild-type Candida albicans SC5314 at 2 microg/ml measured after 24 hrs by alamar blue staining based colorimetric analysis", "assay_type": "functional, organism-based", "conditions": "dose 2.0 µg/ml"}, "[35]": {"experiment": "Selectivity ratio of IC50 for cytotoxicity against human HBE cells to MIC80 for antifungal activity against clinical isolate fluconazole-resistant Candida tropicalis CT10", "assay_type": "toxicity, cell-based"}}, "note": "Active and inactive are the calls of the source. The calls are words filed in the database; no cut-off is given here."}
{"compound": "C=C1C(=O)[C@@]2(C)CC[C@@H]3[C@@]1(CC[C@H]1[C@@]3(C)CCC[C@@]1(C)C(=O)OCCCOc1ccc(C(=N)N)cc1)C2", "values": [{"measurement": "Activity", "setting": "[1]", "result": "Dose-Dependent Effect"}, {"measurement": "fold change (FC)", "setting": "[2]", "result": "~50"}, {"measurement": "Activity", "setting": "[3]", "result": "Active"}, {"measurement": "selectivity ratio", "setting": "[4]", "result": 8}, {"measurement": "Activity", "setting": "[5]", "result": "Dose-Dependent Effect"}, {"measurement": "selectivity ratio", "setting": "[6]", "result": 8}, {"measurement": "IC50 at 4 h", "setting": "[7]", "result": 16.7, "unit": "µg/mL"}, {"measurement": "Activity", "setting": "[8]", "result": "Active"}, {"measurement": "inhibition at 8 µg/mL", "setting": "[9]", "result": "~80.2", "unit": "%"}, {"measurement": "MIC80", "setting": "[10]", "result": 1, "unit": "µg/mL"}, {"measurement": "MIC80", "setting": "[11]", "result": 1, "unit": "µg/mL"}, {"measurement": "Activity", "setting": "[12]", "result": "Tde"}, {"measurement": "Activity", "setting": "[13]", "result": "Dose-Dependent Effect"}, {"measurement": "MIC80", "setting": "[14]", "result": 1, "unit": "µg/mL"}, {"measurement": "Survival", "setting": "[15]", "result": 40, "unit": "%"}, {"measurement": "MIC80", "setting": "[16]", "result": 2, "unit": "µg/mL"}, {"measurement": "selectivity ratio", "setting": "[17]", "result": 8}, {"measurement": "Activity", "setting": "[18]", "result": "Active"}, {"measurement": "MIC80", "setting": "[19]", "result": 1, "unit": "µg/mL"}, {"measurement": "MIC80", "setting": "[20]", "result": 2, "unit": "µg/mL"}, {"measurement": "selectivity ratio", "setting": "[21]", "result": 8}, {"measurement": "MIC80", "setting": "[22]", "result": 1, "unit": "µg/mL"}, {"measurement": "Activity", "setting": "[23]", "result": "Tde"}, {"measurement": "selectivity ratio", "setting": "[24]", "result": 8}, {"measurement": "inhibition", "setting": "[25]", "result": "Dose-Dependent Effect"}, {"measurement": "MIC80", "setting": "[26]", "result": 2, "unit": "µg/mL"}, {"measurement": "inhibition", "setting": "[27]", "result": "Active"}, {"measurement": "MIC80", "setting": "[28]", "result": 2, "unit": "µg/mL"}, {"measurement": "MIC", "setting": "[29]", "result": "inactive"}, {"measurement": "MIC80", "setting": "[29]; Candida albicans, SC5314, 24 h, read-out: MIC80", "result": 1, "unit": "µg/mL"}, {"measurement": "selectivity ratio", "setting": "[30]", "result": 8}, {"measurement": "MIC80", "setting": "[31]", "result": 2, "unit": "µg/mL"}, {"measurement": "Drug uptake", "setting": "[32]", "result": "Active"}, {"measurement": "selectivity ratio", "setting": "[33]", "result": 8}, {"measurement": "inhibition", "setting": "[34]", "result": "Active"}, {"measurement": "selectivity ratio", "setting": "[35]", "result": 8}]}
